In patent US20240115547A1, “PSYCHOTROPIC AGENTS AND USES THEREOF” (LB PHARMACEUTICALS INC., priority 2021, published 2024):

System: Dopamine (e.g., D2/D3)
Test: Dopamine RO % by raclopride PET after LB-102, various dosage regimens (Example 3)
Type: in vivo, human
Settings: for Dopamine RO % (Caudate + Putamen): group mean
Protocol: Healthy subjects were dosed orally with LB102 of 50 mg QD (n=4), 75 mg QD (n=4), 100 mg QD (n=4), 50 mg SS (n=2), or 100 mg SS (n=2). Subjects were, on average, 33 years old. Subjects dosed QD were given a single dose on day 1 after which PET scans were obtained; and subjects dosed SS, i.e., steady state, were dosed once a day for 4 days and PET scans were obtained after dosing on Day 4.
Dynamic […] raclopride PET scans were obtained 0 h, 2.5 h, 7.5 h, and 23.5 h after LB-102 administration for the 50 mg and 100 mg QD treatment groups and after LB-102 administration of Day 4 for the 50 mg SS and 100 mg SS treatment groups; and 0 h, 3.5 h, 23.5 h, and 47.5 h after LB-102 administration for the 75 mg QD treatment group. Dopamine % RO were calculated using the STRM method (https://pubmed.ncbi.nlm.nih.gov/9345505/, which is incorporated herein by reference) and the combined RO % (average of caudate and putamen RO %) are shown as squares FIGS. 5A (50 mg QD), 5B (75 mg QD), 5C (100 mg QD); and FIGS. 6A (50 mg SS Day 4) and 6B (100 mg SS Day 4); and summarized in Table 3-A below.
Dynamic ^11C raclopride PET scan results for calculation of dopamine RO % were measured in caudate, putamen, thalamus, and temporal lobe of each subject tested, and are summarized in Tables 3-B to 3-F below.

[1] = 75 mg QD, Subject 3, 3.5 h after LB-102 admin.
[2] = 75 mg QD, Subject 3, 23.5 h after LB-102 admin.
[3] = 75 mg QD, Subject 3, 47.5 h after LB-102 admin.
[4] = 75 mg QD, Subject 4, 3.5 h after LB-102 admin.
[5] = 75 mg QD, Subject 4, 23.5 h after LB-102 admin.
[6] = 75 mg QD, Subject 4, 47.5 h after LB-102 admin.
[7] = 100 mg QD, Subject 1, 2.5 h after LB-102 admin.
[8] = 100 mg QD, Subject 1, 7.5 h after LB-102 admin.
[9] = 100 mg QD, Subject 1, 23.5 h after LB-102 admin.
[10] = 100 mg QD, Subject 2, 2.5 h after LB-102 admin.
[11] = 100 mg QD, Subject 2, 7.5 h after LB-102 admin.
[12] = 100 mg QD, Subject 2, 23.5 h after LB-102 admin.
[13] = 100 mg QD, Subject 3, 2.5 h after LB-102 admin.
[14] = 100 mg QD, Subject 3, 7.5 h after LB-102 admin.
[15] = 100 mg QD, Subject 3, 23.5 h after LB-102 admin.
[16] = 100 mg QD, Subject 4, 2.5 h after LB-102 admin.
[17] = 100 mg QD, Subject 4, 7.5 h after LB-102 admin.
[18] = 100 mg QD, Subject 4, 23.5 h after LB-102 admin.
[19] = 100 mg SS (Day 4), Subject 3, ~3 h after LB-102 admin.
[20] = 100 mg SS (Day 4), Subject 3, ~8 h after LB-102 admin.
[21] = 100 mg SS (Day 4), Subject 3, ~24 h after LB-102 admin.
[22] = 100 mg SS (Day 4), Subject 4, ~3 h after LB-102 admin.
[23] = 100 mg SS (Day 4), Subject 4, ~8 h after LB-102 admin.
[24] = 100 mg SS (Day 4), Subject 4, ~24 h after LB-102 admin.

## CCN1CCCC1CNC(=O)c1cc(S(=O)(=O)CC)c(NC)cc1OC (stereo not shown) [LB-102]
[1]
  Dopamine RO % Putamen: 50%
  Dopamine RO % Temporal lobe: 28%
  Dopamine RO % Thalamus: 37%
[2]
  Dopamine RO % Caudate: 69%
  Dopamine RO % Putamen: 53%
  Dopamine RO % Temporal lobe: 20%
  Dopamine RO % Thalamus: 36%
[3]
  Dopamine RO % Caudate: 52%
  Dopamine RO % Putamen: 38%
  Dopamine RO % Temporal lobe: 16%
  Dopamine RO % Thalamus: 20%
[4]
  Dopamine RO % Caudate: 5%
  Dopamine RO % Putamen: 2%
  Dopamine RO % Temporal lobe: −2%
  Dopamine RO % Thalamus: 5%
[5]
  Dopamine RO % Caudate: 48%
  Dopamine RO % Putamen: 37%
  Dopamine RO % Temporal lobe: 27%
  Dopamine RO % Thalamus: 21%
[6]
  Dopamine RO % Caudate: 13%
  Dopamine RO % Putamen: 12%
  Dopamine RO % Temporal lobe: −6%
  Dopamine RO % Thalamus: −25%
100 mg QD, 0 h after LB-102 administration
  Dopamine RO % (Caudate + Putamen): 0%
100 mg QD, 3 h after LB-102 administration
  Dopamine RO % (Caudate + Putamen): 41%
100 mg QD, 8 h after LB-102 administration
  Dopamine RO % (Caudate + Putamen): 70%
100 mg QD, 24 h after LB-102 administration
  Dopamine RO % (Caudate + Putamen): 69%
[7]
  Dopamine RO % Caudate: 39%
  Dopamine RO % Putamen: 32%
  Dopamine RO % Temporal lobe: 18%
  Dopamine RO % Thalamus: 28%
[8]
  Dopamine RO % Caudate: 75%
  Dopamine RO % Putamen: 67%
  Dopamine RO % Temporal lobe: 24%
  Dopamine RO % Thalamus: 40%
[9]
  Dopamine RO % Caudate: 76%
  Dopamine RO % Putamen: 68%
  Dopamine RO % Temporal lobe: 13%
  Dopamine RO % Thalamus: 26%
[10]
  Dopamine RO % Caudate: 56%
  Dopamine RO % Putamen: 52%
  Dopamine RO % Temporal lobe: 17%
  Dopamine RO % Thalamus: 42%
[11]
  Dopamine RO % Caudate: 78%
  Dopamine RO % Putamen: 75%
  Dopamine RO % Temporal lobe: 17%
  Dopamine RO % Thalamus: 49%
[12]
  Dopamine RO % Caudate: 72%
  Dopamine RO % Putamen: 66%
  Dopamine RO % Temporal lobe: 22%
  Dopamine RO % Thalamus: 43%
[13]
  Dopamine RO % Caudate: 50%
  Dopamine RO % Putamen: 46%
  Dopamine RO % Temporal lobe: 20%
  Dopamine RO % Thalamus: 34%
[14]
  Dopamine RO % Caudate: 84%
  Dopamine RO % Putamen: 77%
  Dopamine RO % Temporal lobe: 24%
  Dopamine RO % Thalamus: 46%
[15]
  Dopamine RO % Caudate: 76%
  Dopamine RO % Putamen: 69%
  Dopamine RO % Temporal lobe: 22%
  Dopamine RO % Thalamus: 39%
[16]
  Dopamine RO % Caudate: 26%
  Dopamine RO % Putamen: 25%
  Dopamine RO % Temporal lobe: 10%
  Dopamine RO % Thalamus: 31%
[17]
  Dopamine RO % Caudate: 55%
  Dopamine RO % Putamen: 49%
  Dopamine RO % Temporal lobe: 15%
  Dopamine RO % Thalamus: 49%
[18]
  Dopamine RO % Caudate: 68%
  Dopamine RO % Putamen: 56%
  Dopamine RO % Temporal lobe: 15%
  Dopamine RO % Thalamus: 39%
[19]
  Dopamine RO % Caudate: 84%
  Dopamine RO % Putamen: 80%
  Dopamine RO % Temporal lobe: 19%
  Dopamine RO % Thalamus: 50%
[20]
  Dopamine RO % Caudate: 86%
  Dopamine RO % Putamen: 83%
  Dopamine RO % Temporal lobe: 18%
  Dopamine RO % Thalamus: 51%
[21]
  Dopamine RO % Caudate: 80%
  Dopamine RO % Putamen: 73%
  Dopamine RO % Temporal lobe: 23%
  Dopamine RO % Thalamus: 48%
[22]
  Dopamine RO % Caudate: 88%
  Dopamine RO % Putamen: 79%
  Dopamine RO % Temporal lobe: 32%
  Dopamine RO % Thalamus: 78%
[23]
  Dopamine RO % Caudate: 89%
  Dopamine RO % Putamen: 80%
  Dopamine RO % Temporal lobe: 25%
  Dopamine RO % Thalamus: 80%
[24]
  Dopamine RO % Caudate: 83%
  Dopamine RO % Putamen: 72%
  Dopamine RO % Temporal lobe: 31%
  Dopamine RO % Thalamus: 69%
100 mg SS (once a day for 4 days), 3 h after Day 4 administration
  Dopamine RO % (Caudate + Putamen): 88%
100 mg SS (once a day for 4 days), 8 h after Day 4 administration
  Dopamine RO % (Caudate + Putamen): 82%
100 mg SS (once a day for 4 days), 24 h after Day 4 administration
  Dopamine RO % (Caudate + Putamen): 76%
After combined plasma concentration of LB-102 and amisulpride dropped sub 10 ng/mL
  dopamine RO after plasma concentration dropped: persisted significantly
